Test results: the NIST ThermoML archive (doi:10.1016/j.tca.2014.02.019)

Assay: xn = mol fraction of the nth substance listed
Conditions: 101 kPa, Liquid; for viscosity: Falling or rolling sphere viscometry; for mass density: Vibrating tube method

CCOS(=O)(=O)[O-].CC[N+]1(C)CCCCC1 [1-ethyl-1-methylpiperidinium ethyl sulfate] + O
Conditions | mass density [kg/m3] | viscosity [mPa·s]
298.15 K, x1 = 0.106 | 1113.1 | 7.436
298.15 K, x1 = 0.1407 | 1128.31 | 11.14
298.15 K, x1 = 0.2161 | 1148.02 | 22.79
298.15 K, x1 = 0.2643 | 1155.38 | 31.79
298.15 K, x1 = 0.3605 | 1164.49 | 54.56
298.15 K, x1 = 0.4662 | 1170.4 | 96.57
298.15 K, x1 = 0.5583 | 1173.75 | 159.1
298.15 K, x1 = 0.6591 | 1176.55 | 276.5
298.15 K, x1 = 0.7296 | 1177.92 | 419.2
298.15 K, x1 = 0.8133 | 1179.24 | 690.5
298.15 K, x1 = 1 | 1181.33 | 1821
303.15 K, x1 = 0.106 | 1109.81 | 6.222
303.15 K, x1 = 0.1407 | 1124.96 | 9.197
303.15 K, x1 = 0.2161 | 1144.56 | 18.22
303.15 K, x1 = 0.2643 | 1152 | 25.04
303.15 K, x1 = 0.3605 | 1161.22 | 42.54
303.15 K, x1 = 0.4662 | 1167.23 | 74.01
303.15 K, x1 = 0.5583 | 1170.68 | 119.5
303.15 K, x1 = 0.6591 | 1173.32 | 202.2
303.15 K, x1 = 0.7296 | 1174.77 | 296.9
303.15 K, x1 = 0.8133 | 1176.06 | 473.2
303.15 K, x1 = 1 | 1178.23 | 1186
308.15 K, x1 = 0.106 | 1106.45 | 5.272
308.15 K, x1 = 0.1407 | 1121.5 | 7.687
308.15 K, x1 = 0.2161 | 1141.12 | 14.99
308.15 K, x1 = 0.2643 | 1148.59 | 20.4
308.15 K, x1 = 0.3605 | 1157.92 | 33.84
308.15 K, x1 = 0.4662 | 1164.02 | 57.65
308.15 K, x1 = 0.5583 | 1167.53 | 91.73
308.15 K, x1 = 0.6591 | 1170.15 | 150.9
308.15 K, x1 = 0.7296 | 1171.56 | 218.5
308.15 K, x1 = 0.8133 | 1172.89 | 333.5
308.15 K, x1 = 1 | 1175.1 | 795.7
313.15 K, x1 = 0.106 | 1103.05 | 4.518
313.15 K, x1 = 0.1407 | 1118.01 | 6.508
313.15 K, x1 = 0.2161 | 1137.63 | 12.34
313.15 K, x1 = 0.2643 | 1145.18 | 16.7
313.15 K, x1 = 0.3605 | 1154.61 | 27.55
313.15 K, x1 = 0.4662 | 1160.8 | 45.97
313.15 K, x1 = 0.5583 | 1164.37 | 71.4
313.15 K, x1 = 0.6591 | 1167.05 | 115.8
313.15 K, x1 = 0.7296 | 1168.39 | 163.1
313.15 K, x1 = 0.8133 | 1169.71 | 242.2
313.15 K, x1 = 1 | 1171.79 | 549.9
318.15 K, x1 = 0.106 | 1099.61 | 3.91
318.15 K, x1 = 0.1407 | 1114.5 | 5.576
318.15 K, x1 = 0.2161 | 1134.17 | 10.38
318.15 K, x1 = 0.2643 | 1141.75 | 14.03
318.15 K, x1 = 0.3605 | 1151.3 | 22.7
318.15 K, x1 = 0.4662 | 1157.58 | 37.27
318.15 K, x1 = 0.5583 | 1161.21 | 56.71
318.15 K, x1 = 0.6591 | 1163.94 | 89.86
318.15 K, x1 = 0.7296 | 1165.32 | 123.9
318.15 K, x1 = 0.8133 | 1166.53 | 171.1
318.15 K, x1 = 1 | 1168.85 | 391.8
323.15 K, x1 = 0.106 | 1096.14 | 3.415
323.15 K, x1 = 0.1407 | 1110.96 | 4.818
323.15 K, x1 = 0.2161 | 1130.66 | 8.774
323.15 K, x1 = 0.2643 | 1138.31 | 11.77
323.15 K, x1 = 0.3605 | 1147.97 | 18.73
323.15 K, x1 = 0.4662 | 1154.35 | 30.42
323.15 K, x1 = 0.5583 | 1158.04 | 45.67
323.15 K, x1 = 0.6591 | 1160.83 | 70.97
323.15 K, x1 = 0.7296 | 1162.25 | 92.8
323.15 K, x1 = 0.8133 | 1163.48 | 130.8
323.15 K, x1 = 1 | 1165.73 | 285.8
328.15 K, x1 = 0.106 | 1092.63 | 3.006
328.15 K, x1 = 0.1407 | 1107.4 | 4.206
328.15 K, x1 = 0.2161 | 1127.13 | 7.538
328.15 K, x1 = 0.2643 | 1134.87 | 10.13
328.15 K, x1 = 0.3605 | 1144.63 | 15.77
328.15 K, x1 = 0.4662 | 1151.12 | 25.37
328.15 K, x1 = 0.5583 | 1154.87 | 37.45
328.15 K, x1 = 0.6591 | 1157.71 | 56.75
328.15 K, x1 = 0.7296 | 1159.16 | 73.46
328.15 K, x1 = 0.8133 | 1160.43 | 101.6
328.15 K, x1 = 1 | 1162.62 | 212.6
333.15 K, x1 = 0.106 | 1089.08 | 2.667
333.15 K, x1 = 0.1407 | 1103.8 | 3.7
333.15 K, x1 = 0.2161 | 1123.62 | 6.103
333.15 K, x1 = 0.2643 | 1131.4 | 8.625
333.15 K, x1 = 0.3605 | 1141.31 | 13.48
333.15 K, x1 = 0.4662 | 1147.88 | 21.32
333.15 K, x1 = 0.5583 | 1151.7 | –
333.15 K, x1 = 0.6591 | 1154.59 | 44.89
333.15 K, x1 = 0.7296 | 1156.08 | 58.82
333.15 K, x1 = 0.8133 | 1157.38 | 80.45
333.15 K, x1 = 1 | 1159.54 | 162.5
338.15 K, x1 = 0.106 | 1085.5 | 2.383
338.15 K, x1 = 0.1407 | 1100.19 | 3.278
338.15 K, x1 = 0.2161 | 1120.07 | 4.937
338.15 K, x1 = 0.2643 | 1127.93 | 7.493
338.15 K, x1 = 0.3605 | 1137.96 | 11.57
338.15 K, x1 = 0.4662 | 1144.64 | 18.19
338.15 K, x1 = 0.5583 | 1148.52 | 26.14
338.15 K, x1 = 0.6591 | 1151.47 | 37.58
338.15 K, x1 = 0.7296 | 1152.99 | 47.7
338.15 K, x1 = 0.8133 | 1154.33 | 64.86
338.15 K, x1 = 1 | 1156.56 | 126.1
343.15 K, x1 = 0.106 | 1081.88 | 2.143
343.15 K, x1 = 0.1407 | 1096.54 | 2.926
343.15 K, x1 = 0.2161 | 1116.49 | 4.099
343.15 K, x1 = 0.2643 | 1124.44 | 6.755
343.15 K, x1 = 0.3605 | 1134.62 | 10.06
343.15 K, x1 = 0.4662 | 1141.4 | 15.53
343.15 K, x1 = 0.5583 | 1145.35 | 22.23
343.15 K, x1 = 0.6591 | 1148.36 | 32.44
343.15 K, x1 = 0.7296 | 1149.91 | 40.29
343.15 K, x1 = 0.8133 | 1151.31 | 53
343.15 K, x1 = 1 | 1153.58 | 99.87
